Measured values from ChEMBL document CHEMBL5252660 (ACS Med Chem Lett, 2023).

Columns and labels:
[1] = Microsomal stability in human liver microsomes assessed as parent compound remaining measured after 30 mins in presence of NADPH generating system by LC-MS analysis; assay type: ADME, Microsome; details: read-out: Stability
[2] = Drug exposure in BALB/cA mouse assessed as AUC(0 to 6 hrs) of drug at 50 mg/kg, po measured after 6 hrs by LC-MS analysis; assay type: ADME, organism-based; design: dose 50 mg/kg, time 6 hrs, route po; details: in vivo
SNU-16 = assay: cells; details: Homo sapiens, SNU-16, 72 h
Description: Cytotoxicity against human SNU-16 cells assessed as inhibition of cell growth measured after 72 hrs by cell titer glo assay

SNU1 = assay: cells; details: Homo sapiens, SNU1, 72 h
Description: Cytotoxicity against human SNU1 cells assessed as inhibition of cell growth measured after 72 hrs by cell titer glo assay

[3] = Microsomal stability in mouse liver microsomes assessed as parent compound remaining measured after 30 mins in presence of NADPH generating system by LC-MS analysis; assay type: ADME, Microsome; details: read-out: Stability
[4] = Lipophilicity, logD of the compound at pH 7.4; assay type: physicochemical; details: buffer
[5] = target: Fibroblast growth factor receptor 2 (Homo sapiens, UniProt P21802)
Sequence of Fibroblast growth factor receptor 2 (P21802 whole entry): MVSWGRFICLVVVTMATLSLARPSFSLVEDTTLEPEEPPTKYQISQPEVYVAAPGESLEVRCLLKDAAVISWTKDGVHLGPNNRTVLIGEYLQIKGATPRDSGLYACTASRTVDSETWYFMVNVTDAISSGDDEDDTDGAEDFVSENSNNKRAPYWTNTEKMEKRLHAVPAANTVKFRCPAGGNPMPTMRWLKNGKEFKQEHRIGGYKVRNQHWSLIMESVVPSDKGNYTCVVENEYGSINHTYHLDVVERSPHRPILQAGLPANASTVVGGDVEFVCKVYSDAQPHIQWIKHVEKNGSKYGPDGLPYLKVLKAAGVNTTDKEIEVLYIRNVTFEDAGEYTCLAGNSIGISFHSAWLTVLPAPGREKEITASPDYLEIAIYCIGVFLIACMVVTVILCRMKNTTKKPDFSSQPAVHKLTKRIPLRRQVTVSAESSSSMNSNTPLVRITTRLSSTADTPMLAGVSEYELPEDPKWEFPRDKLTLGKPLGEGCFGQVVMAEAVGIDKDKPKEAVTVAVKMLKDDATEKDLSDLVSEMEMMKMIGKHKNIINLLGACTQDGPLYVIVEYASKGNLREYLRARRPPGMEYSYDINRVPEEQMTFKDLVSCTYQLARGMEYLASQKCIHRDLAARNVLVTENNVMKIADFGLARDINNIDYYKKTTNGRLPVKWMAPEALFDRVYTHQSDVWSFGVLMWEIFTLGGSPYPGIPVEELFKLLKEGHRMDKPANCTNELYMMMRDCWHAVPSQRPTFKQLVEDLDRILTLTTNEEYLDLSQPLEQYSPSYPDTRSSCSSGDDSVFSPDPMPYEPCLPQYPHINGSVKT
Description: Inhibition of human recombinant cytoplasmic domain FGFR2 (8 to 134 residues) incubated for 120 mins by mobility shift assay

[6] = target: Epidermal growth factor receptor (Homo sapiens, UniProt P00533, EX19DEL/T790M); assay: Inhibition of recombinant human EGFR del19/T790M using biotinEEPLYWSFPAKKK-NH2 as substrate incubated for 120 mins by TR-FRET assay
Sequence of Epidermal growth factor receptor (P00533 whole entry, looked up, stated change not applied, the tested form may be a part): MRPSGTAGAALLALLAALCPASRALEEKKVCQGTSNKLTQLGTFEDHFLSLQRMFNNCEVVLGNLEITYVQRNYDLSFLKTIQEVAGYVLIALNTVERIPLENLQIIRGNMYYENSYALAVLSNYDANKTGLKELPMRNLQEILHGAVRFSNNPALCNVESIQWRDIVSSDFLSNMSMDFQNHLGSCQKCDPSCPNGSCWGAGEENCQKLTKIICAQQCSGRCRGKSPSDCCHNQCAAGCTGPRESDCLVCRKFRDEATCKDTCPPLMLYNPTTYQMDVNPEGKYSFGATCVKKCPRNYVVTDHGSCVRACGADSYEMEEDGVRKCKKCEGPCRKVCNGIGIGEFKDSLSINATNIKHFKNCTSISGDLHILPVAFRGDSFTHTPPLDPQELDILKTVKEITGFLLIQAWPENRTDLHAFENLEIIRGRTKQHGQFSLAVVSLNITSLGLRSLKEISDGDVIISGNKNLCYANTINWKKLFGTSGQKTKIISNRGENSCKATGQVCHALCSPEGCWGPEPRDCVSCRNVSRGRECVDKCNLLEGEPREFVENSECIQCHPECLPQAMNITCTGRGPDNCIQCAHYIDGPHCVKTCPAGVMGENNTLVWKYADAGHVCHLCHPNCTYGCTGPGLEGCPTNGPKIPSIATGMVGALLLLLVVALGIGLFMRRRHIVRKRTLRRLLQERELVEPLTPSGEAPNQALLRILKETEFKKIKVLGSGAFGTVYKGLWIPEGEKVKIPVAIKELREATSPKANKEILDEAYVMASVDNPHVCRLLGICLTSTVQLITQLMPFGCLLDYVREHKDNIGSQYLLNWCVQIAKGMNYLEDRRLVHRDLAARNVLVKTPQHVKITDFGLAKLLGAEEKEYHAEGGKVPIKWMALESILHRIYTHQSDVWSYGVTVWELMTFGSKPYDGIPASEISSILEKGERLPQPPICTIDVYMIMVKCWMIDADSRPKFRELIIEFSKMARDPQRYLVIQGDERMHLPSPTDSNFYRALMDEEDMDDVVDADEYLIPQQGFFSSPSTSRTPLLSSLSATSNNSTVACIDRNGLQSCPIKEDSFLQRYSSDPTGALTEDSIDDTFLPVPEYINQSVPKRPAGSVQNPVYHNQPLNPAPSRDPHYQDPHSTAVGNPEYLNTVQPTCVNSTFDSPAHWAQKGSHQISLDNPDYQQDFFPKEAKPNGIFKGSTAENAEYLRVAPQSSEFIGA

[7] = target: Fibroblast growth factor receptor 3 (Homo sapiens) (UniProt P22607); assay: Inhibition of wild type human partial length FGFR3 (R442 to S771 residues) expressed in bacterial expression system at 100 uM by Kinome scan method relative to control
[8] = target: Insulin receptor (Homo sapiens) (UniProt P06213); assay: Inhibition of human wild type partial length INSR (P997 to E1318 resides) expressed in mammalian expression system at 100 uM by Kinome scan method relative to control
Sequence of Insulin receptor (Homo sapiens) (P06213 28-758 limits assumed): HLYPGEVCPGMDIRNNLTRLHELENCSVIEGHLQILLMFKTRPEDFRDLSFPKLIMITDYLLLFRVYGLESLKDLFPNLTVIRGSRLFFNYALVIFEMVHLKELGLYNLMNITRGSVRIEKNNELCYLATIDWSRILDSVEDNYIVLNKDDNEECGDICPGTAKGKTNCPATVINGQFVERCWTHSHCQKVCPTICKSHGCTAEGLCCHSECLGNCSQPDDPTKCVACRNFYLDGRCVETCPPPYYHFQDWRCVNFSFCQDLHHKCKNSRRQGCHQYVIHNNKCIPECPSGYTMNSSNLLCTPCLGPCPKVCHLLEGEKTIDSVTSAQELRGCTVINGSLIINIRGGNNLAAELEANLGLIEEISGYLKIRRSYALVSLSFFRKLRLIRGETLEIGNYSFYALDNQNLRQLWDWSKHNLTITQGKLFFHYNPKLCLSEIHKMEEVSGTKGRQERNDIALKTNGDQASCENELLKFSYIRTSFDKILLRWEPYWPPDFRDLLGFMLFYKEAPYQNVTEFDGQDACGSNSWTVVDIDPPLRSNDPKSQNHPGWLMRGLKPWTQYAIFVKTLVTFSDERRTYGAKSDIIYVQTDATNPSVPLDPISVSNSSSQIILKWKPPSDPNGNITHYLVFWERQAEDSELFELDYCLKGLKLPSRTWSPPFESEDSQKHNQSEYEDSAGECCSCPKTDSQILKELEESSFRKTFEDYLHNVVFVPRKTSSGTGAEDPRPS
Sequence of Insulin receptor (Homo sapiens) (P06213 763-1382 limits assumed): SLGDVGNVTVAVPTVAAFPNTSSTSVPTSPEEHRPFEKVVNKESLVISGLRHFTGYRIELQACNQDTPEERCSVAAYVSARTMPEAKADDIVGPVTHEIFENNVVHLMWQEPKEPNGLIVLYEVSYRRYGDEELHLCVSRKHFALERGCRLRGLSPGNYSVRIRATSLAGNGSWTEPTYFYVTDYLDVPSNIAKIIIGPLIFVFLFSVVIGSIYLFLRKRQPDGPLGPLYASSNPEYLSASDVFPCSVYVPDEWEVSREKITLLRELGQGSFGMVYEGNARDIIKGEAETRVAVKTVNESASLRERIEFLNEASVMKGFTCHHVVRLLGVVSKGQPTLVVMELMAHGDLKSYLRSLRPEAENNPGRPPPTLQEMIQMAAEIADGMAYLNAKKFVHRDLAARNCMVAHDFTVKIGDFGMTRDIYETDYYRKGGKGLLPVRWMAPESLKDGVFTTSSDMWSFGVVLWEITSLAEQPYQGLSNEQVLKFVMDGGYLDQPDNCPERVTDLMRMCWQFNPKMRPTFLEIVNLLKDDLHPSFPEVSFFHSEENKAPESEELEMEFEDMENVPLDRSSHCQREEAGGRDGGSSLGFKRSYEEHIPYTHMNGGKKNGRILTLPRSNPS

[9] = target: T1, Mitogen-activated protein kinase 12 (Homo sapiens) (UniProt P53778); assay: Inhibition of human full length wild type MAPK12 (M1 to L367 residues) expressed in mammalian expression system at 100 uM by Kinome scan method relative to control
T1 sequence (whole entry): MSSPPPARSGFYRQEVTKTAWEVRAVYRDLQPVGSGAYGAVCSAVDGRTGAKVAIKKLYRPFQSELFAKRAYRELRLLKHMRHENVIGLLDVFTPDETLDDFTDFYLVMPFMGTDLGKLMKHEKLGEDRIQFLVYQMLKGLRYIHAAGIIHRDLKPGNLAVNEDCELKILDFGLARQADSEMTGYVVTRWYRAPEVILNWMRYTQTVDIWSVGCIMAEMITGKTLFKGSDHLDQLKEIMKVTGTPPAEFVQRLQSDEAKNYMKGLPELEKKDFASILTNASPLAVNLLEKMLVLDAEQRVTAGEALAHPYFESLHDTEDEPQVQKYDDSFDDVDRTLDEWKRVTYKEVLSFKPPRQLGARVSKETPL

[10] = target: Vascular endothelial growth factor receptor 2 (Homo sapiens, UniProt P35968)
Sequence of Vascular endothelial growth factor receptor 2 (P35968 whole entry, the tested form may be a part): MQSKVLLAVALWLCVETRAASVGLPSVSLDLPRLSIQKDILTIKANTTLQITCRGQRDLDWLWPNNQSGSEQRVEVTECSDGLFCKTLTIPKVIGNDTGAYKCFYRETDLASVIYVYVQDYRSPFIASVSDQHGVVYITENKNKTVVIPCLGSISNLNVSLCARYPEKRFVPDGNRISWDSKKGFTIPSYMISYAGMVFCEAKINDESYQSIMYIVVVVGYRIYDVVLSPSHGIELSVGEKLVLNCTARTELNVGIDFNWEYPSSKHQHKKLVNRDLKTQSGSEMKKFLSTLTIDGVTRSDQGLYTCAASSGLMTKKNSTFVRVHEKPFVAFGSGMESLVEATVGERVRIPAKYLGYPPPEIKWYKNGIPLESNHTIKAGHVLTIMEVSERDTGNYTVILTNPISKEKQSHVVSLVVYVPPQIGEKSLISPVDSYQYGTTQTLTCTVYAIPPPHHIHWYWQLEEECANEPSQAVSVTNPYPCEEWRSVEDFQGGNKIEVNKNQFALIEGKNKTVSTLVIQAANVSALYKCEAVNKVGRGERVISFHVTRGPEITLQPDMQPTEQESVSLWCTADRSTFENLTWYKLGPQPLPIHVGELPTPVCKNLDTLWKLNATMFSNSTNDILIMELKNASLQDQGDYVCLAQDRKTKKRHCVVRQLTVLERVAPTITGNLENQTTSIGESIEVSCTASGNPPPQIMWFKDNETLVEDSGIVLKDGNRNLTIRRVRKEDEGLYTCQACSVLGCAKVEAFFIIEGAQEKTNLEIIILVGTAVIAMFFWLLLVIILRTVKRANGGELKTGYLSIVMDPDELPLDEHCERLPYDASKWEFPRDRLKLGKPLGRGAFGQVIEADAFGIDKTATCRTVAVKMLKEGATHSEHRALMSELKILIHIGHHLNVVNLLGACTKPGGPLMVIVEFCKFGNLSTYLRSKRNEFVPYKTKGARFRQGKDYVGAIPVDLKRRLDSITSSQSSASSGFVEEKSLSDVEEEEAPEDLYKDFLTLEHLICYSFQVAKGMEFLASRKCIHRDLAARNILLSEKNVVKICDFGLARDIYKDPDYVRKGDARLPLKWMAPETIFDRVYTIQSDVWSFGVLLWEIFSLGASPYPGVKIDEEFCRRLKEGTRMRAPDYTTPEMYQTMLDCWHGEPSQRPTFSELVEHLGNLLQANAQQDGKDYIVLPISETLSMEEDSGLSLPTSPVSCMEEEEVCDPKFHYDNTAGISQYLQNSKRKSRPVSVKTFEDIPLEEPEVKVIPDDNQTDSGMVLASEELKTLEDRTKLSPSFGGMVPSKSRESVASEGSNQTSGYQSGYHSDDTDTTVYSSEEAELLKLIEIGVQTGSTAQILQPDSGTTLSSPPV
Description: Inhibition of N-terminal GST tagged recombinant human VEGFR2 (aa805 to 1356 residues) expressed in baculovirus expression system using Poly- (Glu4:Tyr)-biotin as substrate incubated for 80 mins in presence of ATP by kinase glo method

[11] = target: Fibroblast growth factor receptor 1 (Homo sapiens) (UniProt P11362); assay: Inhibition of partial length wild type human FGFR1 (P357 to V669 residues) expressed in bacterial expression system at 100 uM by Kinome scan method relative to control

Row | SMILES | IC50 (SNU-16) | IC50 (SNU1) | IC50 [5] | IC50 [6] | further results
1 | COc1cc(C#Cc2nn(C3CN(C(=O)/C=C/CN(C)C)C3)c3ncnc(N)c23)cc(OC)c1 | 8.4 nM | > 5000 nM | – | – | remaining at 0.5 h [1]: 77%; AUC(0-t) at 6 h [2]: 1.27 µM·h; remaining at 0.5 h [3]: 98%; logD [4]: 2.3
2 | C=CC(=O)N1CC[C@H](n2cc(-c3cnc4ccccc4c3)c3c(N)ncnc32)C1 | – | – | 17 nM | 111 nM | –
3 | C=CC(=O)N1CC[C@H](n2nc(CCc3cc(OC)cc(OC)c3)c3c(N)ncnc32)C1 | – | – | 239 nM | > 5000 nM | –
4 | C=CC(=O)N1CC[C@@H](n2cc(-c3cnc4ccccc4c3)c3c(N)ncnc32)C1 | – | – | 313 nM | 0.4 nM | –
5 | C=CC(=O)N1CC[C@H](n2nc(C#Cc3cc(OC)cc(OC)c3)c3c(N)ncnc32)C1 [FUTIBATINIB] | 3.7 nM | > 5000 nM | – | > 5000 nM | inhibition [7]: 97.8%; inhibition [8]: 55%; inhibition [9]: 69%; remaining at 0.5 h [1]: 66%; AUC(0-t) at 6 h [2]: 23.9 µM·h; remaining at 0.5 h [3]: 69%; IC50 [10]: 2360 nM; logD [4]: 3.4; inhibition [11]: 99.1%
6 | C=CC(=O)N1CC[C@@H](n2nc(C#Cc3cc(OC)cc(OC)c3)c3c(N)ncnc32)C1 | 113 nM | > 5000 nM | – | – | IC50 [10]: 1490 nM
7 | C=CC(=O)NCCn1nc(C#Cc2cc(OC)cc(OC)c2)c2c(N)ncnc21 | 362 nM | > 5000 nM | – | – | –
8 | C=CC(=O)N1CC(n2nc(C#Cc3cc(OC)cc(OC)c3)c3c(N)ncnc32)C1 | 7.4 nM | > 5000 nM | – | – | remaining at 0.5 h [1]: 83%; AUC(0-t) at 6 h [2]: 0.07 µM·h; remaining at 0.5 h [3]: 92%; logD [4]: 3
9 | C=CC(=O)N1CCC(n2nc(C#Cc3cc(OC)cc(OC)c3)c3c(N)ncnc32)CC1 | 33 nM | > 5000 nM | – | – | –

Now from value to compound, other results behind:

Row | IC50 (SNU-16) | IC50 (SNU1) | IC50 [5] | IC50 [6] | SMILES | further results
10 | 32 nM | > 5000 nM | – | – | C=CC(=O)N1CC(Cn2nc(C#Cc3cc(OC)cc(OC)c3)c3c(N)ncnc32)C1 | –
11 | – | – | 2260 nM | 5.4 nM | C=CC(=O)N1CC[C@@H](n2nc(-c3cnc4ccccc4c3)c3c(N)ncnc32)C1 | –
12 | – | – | 255 nM | 741 nM | C=CC(=O)N1CC[C@H](n2nc(-c3cnc4ccccc4c3)c3c(N)ncnc32)C1 | –
13 | – | – | 670 nM | > 5000 nM | C=CC(=O)N1CC[C@H](n2nc(C(=O)Nc3cc(OC)cc(OC)c3)c3c(N)ncnc32)C1 | –
14 | 43 nM | > 5000 nM | – | – | COc1cc(C#Cc2nn([C@H]3CCN(C(=O)/C=C/CN(C)C)C3)c3ncnc(N)c23)cc(OC)c1 | –
15 | – | – | 57 nM | 1.2 nM | C=CC(=O)N1CCC(n2cc(-c3cnc4ccccc4c3)c3c(N)ncnc32)C1 (racemic) | –
16 | – | – | – | > 5000 nM | C=CC(=O)N1CC[C@H](n2nc(-c3cc(OC)cc(OC)c3)c3c(N)ncnc32)C1 | –
17 | 1420 nM | > 5000 nM | – | > 5000 nM | CCC(=O)N1CC[C@H](n2nc(C#Cc3cc(OC)cc(OC)c3)c3c(N)ncnc32)C1 | –
